For data set [1], the target named is T1, GRP78ATPase (ATPase domain of human GRP78, residues 26–407) (Homo sapiens, UniProt P11021).
T1 construct: GRP78ATPase (residues 26–407) was amplified from the full-length human GRP78; hexahistidine tag (pET28-MHL vector) (N); made in house; host or cells: E. coli BL-21(DE3)
The experiment in a line: Surface plasmon resonance (SPR) binding of nucleotides to immobilized GRP78ATPase. As to conditions: for binding to GRP78ATPase upon removal of Mg++ (in words): 5 mM EDTA; for Kd: 25 °C, mean ± SD, n = 3. The method, then: Successful transformants were grown in Luria Bertani broth (Sigma) for 16 hrs at 37°C, and then transferred to Terrific Broth (Sigma). Growth at 37°C continued until the OD600 reached ~3.0, whereupon the temperature was lowered to 18°C and protein expression was induced by the addition of 0.1 mM isopropyl β-D-thiogalactopyranoside. Sixteen hours post-induction, cells were collected by centrifugation and resuspended in binding buffer (30 mM Tris-HCl pH 7.5, 200 mM NaCl, 1 mM β-ME) supplemented with 0.1% octylphenoxypolyethoxyethanol, 1 mM benzamidine, and 1 mM phenylmethanesulfonyl fluoride. Cells were lysed by French press, and the lysates were clarified by centrifugation. The supernatant was loaded on to a nickel-nitrilotriacetic acid column pre-equilibrated with binding buffer. Following a wash step with binding buffer containing 30 mM imidazole, the bound protein was eluted using a linear gradient from 30 to 500 mM imidazole. The eluate was then loaded on to a 26/60 Superdex 200 size exclusion column (GE Healthcare) pre-equilibrated with 30 mM Tris-HCl pH 7.5, 200 mM NaCl and 1 mM β-ME. Target protein-containing fractions were pooled and concentrated to 30 mg/ml using 10-kDa centrifugal filter units (Amicon), and then frozen in aliquots at -80°C until further use
SPR measurements were performed on Biacore T200 instrument (GE Healthcare) at 25 °C. Purified GRP78ATPase was immobilized on a CM5 sensorchip using NHS/EDC coupling following the manufacturer protocol to a level of ~7000 RUs, a reference surfaces without immobilized GRP78ATPase served as a control for nonspecific binding and refractive index changes. […] Buffer alone injections were used as blanks. […] The running buffer was 10 mM HEPES, pH 7.4, 150 mM NaCl, 0.005% P20 and 2 mM MgCl2. Biacore equilibrium responses recorded at the end of the association step were used to determine the dissociation constant (Kd). Nonspecific signal binding was removed by subtracting a reference channel without GRP78ATPase. Binding responses at the different concentrations were globally fitted to a saturation-binding model in Prism 6 (GraphPad Software Inc., California).
The effect of Mg^++ on binding affinities was explored by repeating the same SPR protocol with two additional running buffers. The first running buffer contained no addition of Mg^++ to determine the effect of Mg^++ co-purified with GRP78ATPase (10 mM HEPES, pH 7.4, 150 mM NaCl and 0.005% P20), and the second running buffer contained 5 mM EDTA to chelate any Mg^++ present in the system (10 mM HEPES, pH 7.4, 150 mM NaCl, 0.005% P20 and 5 mM EDTA).
For orientation: Surface plasmon resonance follows binding to a sensor surface in real time, without labels.

The subject of data set [2] is human ecto-nucleotidases (NTPDase1, 2, 3, 8 and NPP1 and 3). Particulars: cited from earlier work.
The mark [3] stands for this setting: SPR running buffer untreated (no addition of either MgCl2 or EDTA).
[4] abbreviates: SPR running buffer with 5 mM EDTA (Mg++ removed).
[5] abbreviates: SPR running buffer with 2 mM MgCl2.

A value given as a limit tells only on which side of the number the result lay.

T1 sequence (P11021 26-407): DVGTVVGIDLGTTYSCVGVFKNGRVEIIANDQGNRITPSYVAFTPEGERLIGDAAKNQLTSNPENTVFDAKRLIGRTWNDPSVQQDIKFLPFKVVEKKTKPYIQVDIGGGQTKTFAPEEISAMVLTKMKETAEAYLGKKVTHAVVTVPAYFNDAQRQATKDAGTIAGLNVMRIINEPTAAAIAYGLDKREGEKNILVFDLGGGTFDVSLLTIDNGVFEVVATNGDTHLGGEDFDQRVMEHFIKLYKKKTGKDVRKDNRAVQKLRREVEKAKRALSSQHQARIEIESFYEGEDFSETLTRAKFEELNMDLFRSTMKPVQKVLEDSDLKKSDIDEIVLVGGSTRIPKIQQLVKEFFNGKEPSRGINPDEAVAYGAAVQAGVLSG

As for `Nc1ncnc2c1ncn2[C@H]1C[C@H](O)[C@@H](COP(=O)(O)OP(=O)(O)OP(=O)(O)O)O1` [2'-deoxyATP], in data set [1], the “binding to GRP78ATPase upon removal of Mg++ (in words)” value is given as “nearly abolished the binding”. In addition, the Kd (usually the free concentration of one partner at which half of the binding sites on the other are occupied at equilibrium, for simple one-to-one binding) in data set [1] (setting [3]) is 750 µM; in data set [1] (setting [4]) it was greater than 1000 µM.
For the compound `Nc1ncnc2c1ccn2C1OC(COP(=O)(O)OP(=O)(O)OP(=O)(O)O)C(O)C1O` (stereo not drawn) [7-deazaATP], the dissociation constant Kd in data set [1] (setting [3]) worked out at 0.15 µM; in data set [1] (setting [5]) it was 0.03 µM; in data set [1] (setting [4]), 0.9 µM.
With `Nc1ncnc2c1ncn2C1OC(COP(=O)(O)OP(=O)(O)C(Br)(Br)P(=O)(O)O)C(O)C1O` (stereo not drawn) [AMPPCBrP], the “hydrolysis by most human ecto-nucleotidases” value in data set [2] is reported as “cannot hydrolyze”.
For `Nc1ncnc2c1ncn2[C@@H]1O[C@H](COP(=O)(O)OP(=O)(O)CP(=O)(O)O)[C@@H](O)[C@H]1O` [AMPPCP], the “binding to GRP78ATPase upon removal of Mg++ (in words)” value in data set [1] is “almost abolished binding”. The Kd is 52 µM in data set [1] (setting [3]), 59 µM in data set [1] (setting [5]) and greater than 1000 µM in data set [1] (setting [4]). Moreover, in data set [1] (purified GRP78ATPase, SPR), the “affinity relative to ATP (in words)” value was “two-orders of magnitude lower”.
`Nc1ncnc2c1ncn2[C@@H]1O[C@H](COP(=O)(O)OP(=O)(O)OP(=O)(O)O)[C@@H](O)[C@H]1O` [ATP]: the figures for the Kd in data set [1] (setting [3]), in data set [1] (setting [5]) and in data set [1] (setting [4]) were 0.78 µM, 0.45 µM and 9.8 µM, respectively.

(Values after PMC4856263, “Probing the ATP Site of GRP78 with Nucleotide Triphosphate Analogs” (PLoS ONE, 2016).)
